Reference: publication PMC9278656 (Journal of medicinal chemistry, 2021)
Counter-ions that a name gives are not always drawn. Like-named read-outs stand apart in the source and are kept apart here.

Legend:
p53^R175H = test: Immunofluorescence with conformation-specific antibodies PAB1620/PAB240; type: cell-based
Ionophore activity = settings: larger number indicates weaker ionophore activity
Caco-2 permeability = type: in vitro ADME; settings: human
TOV-112D (p53^R175H) = test: Cell growth inhibition assay; type: cell-based; settings: Homo sapiens, TOV112D, 72 h, read-out: EC50 TOV-112D
[1] = cited from earlier work
[2] = system: p53 wild type and p53 null cell lines; test: Cell kill in p53 wild type and p53 null cell lines; type: cell-based; settings: allele selectivity, Suppl. Figure S1
Human hERG = Human hERG (Homo sapiens, UniProt Q12809); test: CEREP safety screen, hERG [3H]-dofetilide; type: binding; settings: 10 μM
[3] = molecular target: Human Norepinephrine Transporter (Homo sapiens, UniProt P23975); test: CEREP safety screen, norepinephrine transporter; type: binding; settings: 10 μM
H1299 cells (p53 null) = test: Oxidative stress detection, CellROX Green, flow cytometry; type: cell-based; settings: 0.75 μM compound, 24 h, relative to ZMC1
[4] = system: Rat Sodium Channel site 2; test: CEREP safety screen, sodium channel site 2; type: binding; settings: 10 μM
[5] = Hydrolytic stability in SGF and PBS; type: physicochemical; settings: 6 h
TOV-112D cells = test: Combination of C85 with γ-irradiation or etoposide, cell growth inhibition; type: cell-based; settings: Homo sapiens, TOV112D, read-out: EC50, C85 only

Sequence of Human hERG (Q12809 whole entry): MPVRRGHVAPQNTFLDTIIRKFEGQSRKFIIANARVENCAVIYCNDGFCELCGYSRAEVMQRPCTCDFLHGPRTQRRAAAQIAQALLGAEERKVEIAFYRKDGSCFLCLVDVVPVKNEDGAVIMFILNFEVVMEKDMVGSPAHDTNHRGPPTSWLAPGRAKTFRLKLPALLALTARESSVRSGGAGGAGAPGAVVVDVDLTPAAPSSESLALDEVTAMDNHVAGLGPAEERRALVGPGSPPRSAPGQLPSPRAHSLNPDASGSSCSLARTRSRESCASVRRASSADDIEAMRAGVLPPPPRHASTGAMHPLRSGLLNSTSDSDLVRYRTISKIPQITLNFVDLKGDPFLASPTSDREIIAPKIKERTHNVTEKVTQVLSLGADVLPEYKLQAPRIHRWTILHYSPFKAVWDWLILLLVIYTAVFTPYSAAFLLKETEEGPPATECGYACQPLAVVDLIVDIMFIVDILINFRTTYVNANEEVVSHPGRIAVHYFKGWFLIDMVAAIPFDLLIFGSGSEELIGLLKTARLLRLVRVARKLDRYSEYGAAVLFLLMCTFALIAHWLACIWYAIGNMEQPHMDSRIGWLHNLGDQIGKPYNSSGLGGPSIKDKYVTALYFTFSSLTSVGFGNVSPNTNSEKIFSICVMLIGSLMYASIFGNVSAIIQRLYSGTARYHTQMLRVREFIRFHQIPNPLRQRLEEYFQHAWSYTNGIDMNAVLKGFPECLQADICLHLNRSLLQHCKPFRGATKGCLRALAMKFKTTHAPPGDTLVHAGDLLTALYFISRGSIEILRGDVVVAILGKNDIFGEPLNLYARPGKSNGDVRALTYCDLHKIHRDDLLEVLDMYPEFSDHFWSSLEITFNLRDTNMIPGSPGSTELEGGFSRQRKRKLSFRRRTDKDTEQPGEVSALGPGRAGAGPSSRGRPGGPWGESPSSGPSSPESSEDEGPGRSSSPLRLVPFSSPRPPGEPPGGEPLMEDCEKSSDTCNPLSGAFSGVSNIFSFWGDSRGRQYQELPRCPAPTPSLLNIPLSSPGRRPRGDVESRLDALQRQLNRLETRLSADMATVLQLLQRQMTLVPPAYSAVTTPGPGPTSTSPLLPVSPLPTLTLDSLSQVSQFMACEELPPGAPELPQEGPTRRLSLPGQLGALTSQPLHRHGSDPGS
Sequence of Human Norepinephrine Transporter (P23975 whole entry): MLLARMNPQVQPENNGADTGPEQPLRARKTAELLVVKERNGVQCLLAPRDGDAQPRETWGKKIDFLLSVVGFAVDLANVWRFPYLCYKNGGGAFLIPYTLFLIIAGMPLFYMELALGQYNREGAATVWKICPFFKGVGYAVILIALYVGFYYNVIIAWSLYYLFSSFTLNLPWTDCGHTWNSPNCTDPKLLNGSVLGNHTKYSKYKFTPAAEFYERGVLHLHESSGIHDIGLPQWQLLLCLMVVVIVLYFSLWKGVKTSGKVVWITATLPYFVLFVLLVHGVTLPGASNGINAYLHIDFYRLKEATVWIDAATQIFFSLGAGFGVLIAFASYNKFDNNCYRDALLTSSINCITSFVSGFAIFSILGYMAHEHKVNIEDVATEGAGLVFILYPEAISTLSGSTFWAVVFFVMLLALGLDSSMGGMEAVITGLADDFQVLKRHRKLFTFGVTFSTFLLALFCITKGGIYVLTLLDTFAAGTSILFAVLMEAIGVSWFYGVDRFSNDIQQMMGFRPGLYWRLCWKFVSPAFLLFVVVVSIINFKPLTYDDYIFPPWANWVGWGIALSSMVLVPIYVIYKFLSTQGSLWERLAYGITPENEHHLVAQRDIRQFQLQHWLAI

C/C(=N\NC(=S)N(C)C)c1ccccn1 [A1, (E)-N,N-Dimethyl-2-(1-(pyridin-2-yl)ethylidene)hydrazine-1-carbothioamide]
Refolding p53^R175H → wild type (p53^R175H): YES
Ionophore Ji drug/Ji DMSO (Ionophore activity): 12.8 -log[mol/m^2s]
Papp at 90 min, 5 μM (Caco-2 permeability): 7.3 ± 0.1 ×10⁻⁶ cm/s

C/C(=N\NC(=S)NC1CCN(c2ccccn2)CC1)c1ccccn1 [A4, (E)-2-(1-(Pyridin-2-yl)ethylidene)-N-(1-(pyridin-2-yl)piperidin-4-yl)hydrazine-1-carbothioamide]
Ionophore Ji drug/Ji DMSO (Ionophore activity): 14.5 -log[mol/m^2s]

CS/C(=N\N=C(/C)c1ccccn1)N1CCC1 [A5, Methyl (Z)-N-((E)-1-(Pyridin-2-yl)ethylidene)azetidine-1-carbohydrazonothioate]
Ionophore Ji drug/Ji DMSO (Ionophore activity): 12.4 -log[mol/m^2s]

C/C(=N\NC(=O)N1CCC1)c1ccccn1 [A6, (E)-N′-(1-(Pyridin-2-yl)ethylidene)azetidine-1-carbohydrazide]
Ionophore Ji drug/Ji DMSO (Ionophore activity): 12.9 -log[mol/m^2s]

C/C(=N\NC(=S)N1CCC1)c1ccccc1 [A9, (E)-N′-(1-Phenylethylidene)azetidine-1-carbothiohydrazide]
Ionophore Ji drug/Ji DMSO (Ionophore activity): 11.6 -log[mol/m^2s]

C/C(=N\NC(=S)N1CCC1)c1cnccn1 [A10, (E)-N′-(1-(Pyrazin-2-yl)ethylidene)azetidine-1-carbothiohydrazide]
Refolding p53^R175H → wild type (p53^R175H): YES
Ionophore Ji drug/Ji DMSO (Ionophore activity): 11.8 -log[mol/m^2s]
EC50 (TOV-112D (p53^R175H)): 22 nM

C/C(=N\NC(=S)N1CCC1)c1cccc(C)n1 [A11, (E)-N′-(1-(6-Methylpyridin-2-yl)ethylidene)azetidine-1-carbothiohydrazide]
Refolding p53^R175H → wild type (p53^R175H): YES
Ionophore Ji drug/Ji DMSO (Ionophore activity): 12.6 -log[mol/m^2s]

C/C(=N\NC(=S)N1CCC1)c1ncccc1C [A12, (E)-N′-(1-(3-Methylpyridin-2-yl)ethylidene)azetidine-1-carbothiohydrazide]
Ionophore Ji drug/Ji DMSO (Ionophore activity): 11.6 -log[mol/m^2s]
EC50 (TOV-112D (p53^R175H)): 11 nM

CC(C)(C)/C(=N\NC(=S)N1CCC1)c1ccccn1 [A13, (E)-N′-(2,2-Dimethyl-1-(pyridin-2-yl)propylidene)azetidine-1-carbothiohydrazide]
Ionophore Ji drug/Ji DMSO (Ionophore activity): 14.4 -log[mol/m^2s]

C/C(=N\NC(=S)N1CCC1)c1cc(N(C)C)ccn1 [A14, (E)-N′-(1-(4-(Dimethylamino)pyridin-2-yl)ethylidene)azetidine-1-carbothiohydrazide]
Ionophore Ji drug/Ji DMSO (Ionophore activity): 12.5 -log[mol/m^2s]

C/C(=N\Nc1nc2ccccc2o1)c1ccccn1 [C2, (E)-2-(2-(1-(Pyridin-2-yl)ethylidene)hydrazinyl)benzo[d]oxazole]
Refolding p53^R175H → wild type (p53^R175H): induced a wild-type conformational change and YES
Aqueous solubility [1]: low aqueous solubility
Ionophore Ji drug/Ji DMSO (Ionophore activity): 11.8 -log[mol/m^2s]
Cell kill in p53 wild type and p53 null cell lines [2]: almost no cell kill
Papp at 90 min, 5 μM (Caco-2 permeability): 10.6 ± 0.5 ×10⁻⁶ cm/s

C/C(=N\Nc1nc2ccccc2n1C)c1ccccn1 [C9, (E)-1-Methyl-2-(2-(1-(pyridin-2-yl)ethylidene)hydrazinyl)-1H-benzo[d]imidazole]
hERG inhibition, in words (Human hERG): strong hERG inhibition
Refolding p53^R175H → wild type (p53^R175H): YES
Aqueous solubility [1]: low aqueous solubility
Ionophore Ji drug/Ji DMSO (Ionophore activity): 11.6 -log[mol/m^2s]

C/C(=N\Nc1nc2ccccc2s1)c1cc(N(C)C)ccn1 [C21, (E)-2-(1-(2-(Benzo[d]thiazol-2-yl)hydrazineylidene)ethyl)-N,N-dimethylpyridin-4-amine]
Refolding p53^R175H → wild type (p53^R175H): YES
Ionophore Ji drug/Ji DMSO (Ionophore activity): 11.6 -log[mol/m^2s]

C/C(=N\Nc1ccc2ccccc2n1)c1ccccn1 [C22, (E)-2-(2-(1-(Pyridin-2-yl)ethylidene)hydrazineyl)quinoline]
Refolding p53^R175H → wild type (p53^R175H): YES
Ionophore Ji drug/Ji DMSO (Ionophore activity): 11.6 -log[mol/m^2s]

COCCOc1ccc2nc(N/N=C(\C)c3ccccn3)sc2c1 [C23, (E)-6-(2-Methoxyethoxy)-2-(2-(1-(pyridin-2-yl)ethylidene)hydrazineyl)benzo[d]thiazole AcOH]
Refolding p53^R175H → wild type (p53^R175H): YES
Ionophore Ji drug/Ji DMSO (Ionophore activity): 11.6 -log[mol/m^2s]

C/C(=N\Nc1nc2ccccc2n1CCN(C)C)c1ccccn1 [C27, (E)-N,N-Dimethyl-2-(2-(2-(1-(pyridin-2-yl)ethylidene)hydrazineyl)-1H-benzo[d]imidazol-1-yl)ethan-1-amine HCl]
Refolding p53^R175H → wild type (p53^R175H): YES
Ionophore Ji drug/Ji DMSO (Ionophore activity): 11.6 -log[mol/m^2s]

C/C(=N\Nc1nc2ccccc2s1)c1cc(OCCN(C)C)ccn1 [C28, (E)-2-((2-(1-(2-(Benzo[d]thiazol-2-yl)hydrazineylidene)ethyl)pyridin-4-yl)oxy)-N,N-dimethylethan-1-amine HCl]
hERG inhibition, in words (Human hERG): strong hERG inhibition
Refolding p53^R175H → wild type (p53^R175H): YES
Activity against the norepinephrine transporter, in words [3]: showed activity
Ionophore Ji drug/Ji DMSO (Ionophore activity): 11.6 -log[mol/m^2s]

C/C(=N\Nc1nc2ccccc2o1)c1cc(OCCN(C)C)ccn1 [C35, (E)-2-((2-(1-(2-(Benzo[d]oxazol-2-yl)hydrazineylidene)ethyl)pyridin-4-yl)oxy)-N,N-dimethylethan-1-amine HCl]
Refolding p53^R175H → wild type (p53^R175H): YES

C/C(=N\Nc1nc2ccccc2n1CCN1CCOCC1)c1ccccn1 [C42, (E)-4-(2-(2-(2-(1-(Pyridin-2-yl)ethylidene)hydrazineyl)-1H-benzo[d]imidazol-1-yl)ethyl)morpholine HCl]
hERG inhibition, in words (Human hERG): strong hERG inhibition
Refolding p53^R175H → wild type (p53^R175H): YES
ROS (ROS/ZMC1 ROS) (H1299 cells (p53 null)): 1.0
Ionophore Ji drug/Ji DMSO (Ionophore activity): 11.6 -log[mol/m^2s]

C/C(=N\Nc1nc2ccccc2s1)c1cc(OCCO)ccn1 [C61, (E)-2-((2-(1-(2-(Benzo[d]thiazol-2-yl)hydrazineylidene)ethyl)pyridin-4-yl)oxy)ethan-1-ol]
Ionophore Ji drug/Ji DMSO (Ionophore activity): 11.6 -log[mol/m^2s]

C/C(=N\Nc1nc2ccccc2s1)c1cc(OCCN2CCN(C)CC2)ccn1 [C64, (E)-2-(2-(1-(4-(2-(4-Methylpiperazin-1-yl)ethoxy)pyridin-2-yl)ethylidene)hydrazineyl)benzo[d]thiazole HCl]
Ionophore Ji drug/Ji DMSO (Ionophore activity): 11.6 -log[mol/m^2s]

COC/C(=N\Nc1nc2ccccc2s1)c1ccccn1 [C65, (Z)-2-(2-(2-Methoxy-1-(pyridin-2-yl)ethylidene)hydrazineyl)benzo[d]thiazole]
Refolding p53^R175H → wild type (p53^R175H): YES
Ionophore Ji drug/Ji DMSO (Ionophore activity): 11.6 -log[mol/m^2s]

C/C(=N\Nc1nc2ccccc2n1CCN1CCCC1)c1ccccn1 [C69, (E)-2-(2-(1-(Pyridin-2-yl)ethylidene)hydrazineyl)-1-(2-(pyrrolidin-1-yl)ethyl)-1H-benzo[d]imidazole HCl]
hERG inhibition, in words (Human hERG): strong hERG inhibition
Refolding p53^R175H → wild type (p53^R175H): YES
ROS (ROS/ZMC1 ROS) (H1299 cells (p53 null)): 1.2
Activity against the sodium channel, in words [4]: showed activity
Activity against the norepinephrine transporter, in words [3]: showed activity
Ionophore Ji drug/Ji DMSO (Ionophore activity): 11.6 -log[mol/m^2s]
EC50 (TOV-112D (p53^R175H)): 93 nM

C/C(=N\Nc1nc2ccccc2s1)c1ncccn1 [C77, (E)-2-(2-(1-(Pyrimidin-2-yl)ethylidene)hydrazineyl)benzo[d]thiazole AcOH]
Activity against the norepinephrine transporter, in words [3]: showed activity
Ionophore Ji drug/Ji DMSO (Ionophore activity): 11.8 -log[mol/m^2s]

C/C(=N\Nc1nccn1C)c1ccccn1 [C78, 2-(1-(2-(1-Methyl-1H-imidazol-2-yl)hydrazono)ethyl)pyridine HCl]
Refolding p53^R175H → wild type (p53^R175H): YES
Ionophore Ji drug/Ji DMSO (Ionophore activity): 11.8 -log[mol/m^2s]

C/C(=N\Nc1nc2ccccc2n1CCN1CCC(F)(F)C1)c1ccccn1 [C85, (E)-1-(2-(3,3-Difluoropyrrolidin-1-yl)ethyl)-2-(2-(1-(pyridin-2-yl)ethylidene)hydrazineyl)-1H-benzo[d]imidazole HCl]
hERG inhibition, in words (Human hERG): potent hERG inhibition
Refolding p53^R175H → wild type (p53^R175H): could induce a wild-type conformational change and YES
ROS (ROS/ZMC1 ROS) (H1299 cells (p53 null)): 0.8
Ionophore Ji drug/Ji DMSO (Ionophore activity): 12.2 -log[mol/m^2s]
Compound remaining ([5]; SGF pH 1–2, 37 °C): > 82%
Compound remaining ([5]; SGF pH 1–2, room temperature): > 92%
EC50 (TOV-112D cells; light or radiation study, 72 h): 710 nM
EC50 (TOV-112D cells): 570 nM

C/C(=N\Nc1nc2ccccc2n1C)c1ncccn1 [C89, (E)-1-Methyl-2-(2-(1-(pyrimidin-2-yl)ethylidene)hydrazineyl)-1H-benzo[d]imidazole HCl]
hERG inhibition, in words (Human hERG): strong hERG inhibition
Ionophore Ji drug/Ji DMSO (Ionophore activity): 12.0 -log[mol/m^2s]
